Active and inactive are the calls of the source. The calls are words filed in the database; no cut-off is given here.

The target in the test is Cystic fibrosis transmembrane conductance regulator (Homo sapiens) (UniProt P13569). Put plainly: Corrector activity at human CFTR deltaF508 mutant expressed in FRT cells assessed as iodide influx at 25 uM. Type of test: cell-based.
Chain of Cystic fibrosis transmembrane conductance regulator (Homo sapiens) (P13569 whole entry, looked up): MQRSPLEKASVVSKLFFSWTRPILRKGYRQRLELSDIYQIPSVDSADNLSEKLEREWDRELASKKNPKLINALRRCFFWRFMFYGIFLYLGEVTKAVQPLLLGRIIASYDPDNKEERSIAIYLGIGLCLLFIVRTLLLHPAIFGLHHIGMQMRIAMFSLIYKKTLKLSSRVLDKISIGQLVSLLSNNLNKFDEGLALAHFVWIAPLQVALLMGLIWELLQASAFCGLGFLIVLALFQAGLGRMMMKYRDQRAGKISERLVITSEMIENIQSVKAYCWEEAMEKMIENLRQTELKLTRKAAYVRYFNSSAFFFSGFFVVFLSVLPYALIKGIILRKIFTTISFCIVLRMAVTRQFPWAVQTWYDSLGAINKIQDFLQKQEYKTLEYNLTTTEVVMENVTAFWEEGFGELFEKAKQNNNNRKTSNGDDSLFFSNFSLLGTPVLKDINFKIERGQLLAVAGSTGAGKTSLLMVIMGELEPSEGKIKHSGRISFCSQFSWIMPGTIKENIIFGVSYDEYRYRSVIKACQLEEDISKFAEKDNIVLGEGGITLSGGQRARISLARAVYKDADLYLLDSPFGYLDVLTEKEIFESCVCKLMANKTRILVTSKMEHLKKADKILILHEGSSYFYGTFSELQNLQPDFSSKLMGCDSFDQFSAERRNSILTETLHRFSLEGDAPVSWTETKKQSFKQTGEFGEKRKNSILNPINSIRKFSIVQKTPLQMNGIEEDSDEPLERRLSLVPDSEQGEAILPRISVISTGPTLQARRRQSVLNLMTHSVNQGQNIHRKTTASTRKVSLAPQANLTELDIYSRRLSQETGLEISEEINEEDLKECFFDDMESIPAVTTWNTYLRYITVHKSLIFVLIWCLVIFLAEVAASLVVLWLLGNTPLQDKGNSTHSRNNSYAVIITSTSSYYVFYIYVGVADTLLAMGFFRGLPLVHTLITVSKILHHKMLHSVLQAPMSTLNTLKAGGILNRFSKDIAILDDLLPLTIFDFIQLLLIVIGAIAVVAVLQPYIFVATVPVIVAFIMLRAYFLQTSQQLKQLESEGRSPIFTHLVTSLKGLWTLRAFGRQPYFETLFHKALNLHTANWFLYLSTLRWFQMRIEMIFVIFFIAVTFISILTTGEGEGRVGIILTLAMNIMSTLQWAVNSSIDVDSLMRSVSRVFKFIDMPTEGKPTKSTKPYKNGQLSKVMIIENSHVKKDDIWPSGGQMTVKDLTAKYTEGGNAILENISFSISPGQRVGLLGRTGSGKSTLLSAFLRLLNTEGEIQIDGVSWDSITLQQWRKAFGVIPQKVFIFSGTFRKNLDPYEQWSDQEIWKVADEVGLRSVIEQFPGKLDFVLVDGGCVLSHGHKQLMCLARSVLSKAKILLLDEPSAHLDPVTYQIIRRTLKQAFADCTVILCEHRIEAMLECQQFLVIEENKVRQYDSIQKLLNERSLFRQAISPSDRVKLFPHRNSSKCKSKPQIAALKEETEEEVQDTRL

For the molecule `COc1ccc(Cl)cc1Nc1nc(-c2sc(NC(=O)C(C)(C)C)nc2C)cs1`, the result was Active.
Consider `COc1ccc(Cl)cc1Nc1nc(-c2cnc(NC(=O)C(C)(C)C)s2)cs1`, for which the outcome was Active.
In the case of `COc1ccc(Cl)cc1Nc1nc2c(s1)CCCc1nc(NC(=O)C(C)(C)C)sc1-2`, the outcome was Active.
Turning to `COc1ccc(Cl)cc1Nc1nc(-c2cccc(NC(=O)C(C)(C)C)c2)cs1`, the outcome was inactive.
Next, `COc1ccc(Cl)cc1Nc1nc(C)c(-c2csc(NC(=O)C(C)(C)C)n2)s1`: “inactive”; `COc1ccc(Cl)cc1Nc1nc(-c2cccc(NC(=O)C(C)(C)C)c2)c(C)s1`: “inactive”.
